These results are taken from patent US20100160219A1, “Novel Polypeptides Inducing Dendritic Cell Migration, as Well as Medicines and Pharmaceutical Compositions Containing Same” (priority 2006, published 2010).

For test [1], the system named is Langerhans cells and dendritic cells. The experiment in a line: In vivo migration-inducing assay in mice (ear application, auricular lymph nodes). The settings on record: mouse, 5 μl of 25 mg/ml in DMSO on left ear, 24 hours. Here is the method: The peptide of SEQ ID NO.16 was also tested in vivo in mice in a migration-inducing assay. In order to do this, a population of mice was used in which the EGFP gene is introduced in front of the gene for Langerin, which makes Langerhans cells naturally fluorescent. The gene encoding CCR6 is also disrupted in these mice but normal numbers of Langerhans cells are present in the epidermis. These mice are obtained by crossing two murine strains: the Langerin DTR EGFP line (Kissenpfennig A, et al. in Trends Immunol. 2006 March; 27(3):132-9. Immunity. 2005 May; 22(5):643-54) maintained at the CNRS centre for distribution, typing and archiving at Orleans, France, and subsequently available from the European Mouse Mutant Archive (EMMA, GSF National Research Centre for Environment and Health, Institute of Experimental Genetics, Ingolstädter Landstrasse 1, D-85764 Neuherberg, Munich, Germany, www.emmanet.org) under the identification number EM:01822, and the CCR6 knockout line, published by Cook et al. in Immunity, 2000, 12: 495-503 and by Lukrs et al. in J. Exp. Med., 2001, 194, 551-555.
The peptide of SEQ ID NO.16 is prepared in DMSO at a concentration of 25 mg/ml. […] The number of (naturally fluorescent) Langerhans cells is counted and the total number of dendritic cells identified by labelling with an anti-CD11c antibody.

A further test deals with dendritic cells. The experiment in a line: In vitro assay of dendritic cell migration. The settings on record: cells incubated 24 hours with the fraction or polypeptide, then migration towards MIP-3β; ESAs at final dilution 1:20; index relative to untreated control. It is filed as cell-based.

For the substance “DTGSGGDDSEGAWGGEQQQVQQHGQSEDR (Amino acids 30-58 of the sequence of GRA5 protein from PRU strain of toxoplasma gondii) [SEQ ID NO.16, fragment corresponding to amino acids 30 to 58 of the GRA5-PRU protein, prepared by peptide synthesis]”, the “number of dendritic cells (CD11c) and Langerhans cells in auricular lymph nodes, treated side vs DMSO side” value in test [1] is reported as “induces the migration of these cells in vivo”.

For the substance “glutathione S-transferase [GST, reference compound]”, the “migration of dendritic cells (migration-inducing activity, migration index)” value in the test with dendritic cells is on record as “no activity”.
